Test results reported in patent US8207347B2, “Pyridone derivatives as NK3 antagonists” (H. Lundbeck A/S, priority 2009, dated 2012).

Target: T1, human NK3 receptor (Homo sapiens, UniProt P29371)
T1 construct: expressed in transfected cells
T1 sequence (P29371 1-465): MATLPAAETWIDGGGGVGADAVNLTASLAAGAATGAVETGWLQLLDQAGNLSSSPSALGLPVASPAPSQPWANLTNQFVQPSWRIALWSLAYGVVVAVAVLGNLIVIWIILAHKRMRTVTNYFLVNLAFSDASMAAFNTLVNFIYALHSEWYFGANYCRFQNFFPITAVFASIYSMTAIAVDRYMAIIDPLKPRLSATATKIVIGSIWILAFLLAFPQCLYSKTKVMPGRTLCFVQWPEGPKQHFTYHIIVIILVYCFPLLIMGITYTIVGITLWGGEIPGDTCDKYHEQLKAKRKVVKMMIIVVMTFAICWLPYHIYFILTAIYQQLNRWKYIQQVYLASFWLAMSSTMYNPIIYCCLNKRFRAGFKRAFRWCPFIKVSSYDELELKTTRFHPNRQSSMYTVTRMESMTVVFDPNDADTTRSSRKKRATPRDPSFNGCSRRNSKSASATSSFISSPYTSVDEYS
Test: NK3 receptor binding assay (filter-based competition binding, 3H-AE93103)
Conditions: BHK cell membranes expressing human NK3 receptor; Ki from IC50 by Cheng Prusoff equation; read-out: Affinity (Ki/nM)
Method: BHK cells stably expressing the human NK3 receptor were seeded in harvesting plates in Dulbeccos MEM containing GlutaMax (862 mg/l), 1 mM sodium pyruvate, 10% fetal calf serum, 1% Pen/Strep, 1 mg/ml G418 and were grown at 34° C. in a humidified atmosphere containing 10% CO2. To increase receptor expression, 10 μM trichotatin A was added to the media 24 hours before harvest of the cells at a confluency of app 90%. Prior to the harvesting, the cells were washed twice with PBS without Mg^2+ of Ca^2+ and subsequently scrapped of in 10 ml PBS pr harvesting plate. The cells suspension were centrifuged at 1500×G in three minutes before resuspension in 15 mM Tris-HCl buffer pH 7.5 containing 2 mM MgCl2; 0.3 mM EDTA and 1 mM EGTA (buffer A). The cell suspension was homogenised and subsequently centrifuged at 40000×G in 30 minutes. The membrane-pellet was resuspended in buffer A containing 250 mM sucrose, aliquoted and stored at −80° C.
The assay is performed as a filter-based competition-binding in a 50 mM Tris pH 7.4 assay buffer containing 120 mM NaCl and 3 mM MnCl2. App 0.05 nM ^3H-AE93103 was mixed with test compounds before addition of 0.15 μg of a homogenised NK3 membrane preparation in a total volume of 300 μl. The assay plate is incubated for 90 min at RT before content of the wells is transferred using a cell-harvester to GF/C filter plates, which has been pretreated with 0.1% PEI. The filter is washed 3 times with 1 ml an ice-cold 50 mM Tris buffer, pH 7.4. The filter is dried and added scintillation liquid before the plate is counted in a topcounter 5 minutes pr well.
The total binding, which comprised less than 10% of added radioligand, was defined using assay buffer whereas the non-specific binding was defined in the presence of 1 μM SR142801. The non-specific binding constituted ˜10% of the total binding.
Data points are expressed in percent of the specific binding of ^3H-AE93103 and the […] (concentration causing 50% inhibition of ^3H-AE93103 specific binding) are determined by non-linear regression analysis using a sigmoidal variable slope curve fitting.

For CCCn1c(C)c(C(=O)N[C@H](c2cc(F)cc(F)c2)C2CCC2)c(C)c(Br)c1=O [Example 1ak, 5-Bromo-2,4-dimethyl-6-oxo-1-propyl-1,6-dihydro-pyridine-3-carboxylic acid [(S)-cyclobutyl-(3,5-difluoro-phenyl)-methyl]-amide], which Ki is on record?
Its Ki is 49 nM.

Which Ki does the source give for CCCNn1c(C)c(C(=O)N[C@H](c2ccccc2)C2CCC2)c(C)c(Br)c1=O [Example 1i, 5-Bromo-2,4-dimethyl-6-oxo-1-propylamino-1,6-dihydro-pyridine-3-carboxylic acid ((S)-cyclobutyl-phenyl-methyl)-amide] here?
The Ki was 16 nM.

For CCCn1c(C)c(C(=O)N[C@H](c2ccccc2Cl)C2CC2)c(C)c(Br)c1=O [Example 1s, 5-Bromo-2,4-dimethyl-6-oxo-1-propyl-1,6-dihydro-pyridine-3-carboxylic acid [(S)-(2-chloro-phenyl)-cyclopropyl-methyl]-amide], which Ki is on record?
Its Ki is 67 nM.

For CCCn1c(C)c(C(=O)N[C@H](c2ccccc2)C2CCC2)c(C)c(Br)c1=O [Example 1z, 5-Bromo-2,4-dimethyl-6-oxo-1-propyl-1,6-dihydro-pyridine-3-carboxylic acid ((S)-cyclobutyl-phenyl-methyl)-amide], which Ki is on record?
Its Ki is 36 nM.

For Cc1c(C(=O)N[C@H](c2cccc(F)c2)C2CCC2)c(C)n(-c2ccccc2)c(=O)c1Br [Example 2a, 5-Bromo-2,4-dimethyl-6-oxo-1-phenyl-1,6-dihydro-pyridine-3-carboxylic acid [(S)-cyclobutyl-(3-fluoro-phenyl)-methyl]-amide], which Ki is on record?
Its Ki is 52 nM.

For CCNn1c(C)c(C(=O)N[C@H](c2cccc(F)c2)C2CCC2)c(C)c(Br)c1=O [Example 2c, 5-Bromo-1-ethylamino-2,4-dimethyl-6-oxo-1,6-dihydro-pyridine-3-carboxylic acid [(S)-cyclobutyl-(3-fluoro-phenyl)-methyl]-amide], which Ki is on record?
Its Ki is 24 nM.

With CCCn1c(C)c(C(=O)N[C@H](c2cccc(F)c2)C2CCC2)c(C)c(Br)c1=O [Example 2d, 5-Bromo-2,4-dimethyl-6-oxo-1-propyl-1,6-dihydro-pyridine-3-carboxylic acid [(S)-cyclobutyl-(3-fluoro-phenyl)-methyl]-amide] as the compound, how does the Ki read?
The Ki was 30 nM.

With CCc1c(C(=O)N[C@H](c2cccc(F)c2)C2CCC2)c(C)n(-c2ccccc2)c(=O)c1Br [Example 2e, 5-Bromo-4-ethyl-2-methyl-6-oxo-1-phenyl-1,6-dihydro-pyridine-3-carboxylic acid [(S)-cyclobutyl-(3-fluoro-phenyl)-methyl]-amide] as the compound, how does the Ki read?
Its Ki is 50 nM.

For CCCc1c(C(=O)N[C@H](c2cccc(F)c2)C2CCC2)c(C)n(-c2ccccc2)c(=O)c1Br [Example 2f, 5-Bromo-2-methyl-6-oxo-1-phenyl-4-propyl-1,6-dihydro-pyridine-3-carboxylic acid [(S)-cyclobutyl-(3-fluoro-phenyl)-methyl]-amide], which Ki is on record?
The Ki was 90 nM.

With Cc1c(C(=O)N[C@H](c2cccc(F)c2)C2CCC2)c(C(F)(F)F)c(Br)c(=O)n1-c1ccccc1 [Example 2g, 5-Bromo-2-methyl-6-oxo-1-phenyl-4-trifluoromethyl-1,6-dihydro-pyridine-3-carboxylic acid [(S)-cyclobutyl-(3-fluoro-phenyl)-methyl]-amide] as the compound, how does the Ki read?
Its Ki is 7 nM.

Which Ki does the source give for Cc1c(C(=O)N[C@H](c2cccc(F)c2)C2CCC2)c(C(F)(F)F)c(Cl)c(=O)n1-c1ccccc1 [Example 2m, 5-Chloro-2-methyl-6-oxo-1-phenyl-4-trifluoromethyl-1,6-dihydro-pyridine-3-carboxylic acid [(S)-cyclobutyl-(3-fluoro-phenyl)-methyl]-amide] here?
The Ki was 24 nM.

For CCCNn1c(C)c(C(=O)N[C@H](c2cccc(F)c2)C2CCC2)c(C)c(C#N)c1=O [Example 3b, 5-Cyano-2,4-dimethyl-6-oxo-1-propylamino-1,6-dihydro-pyridine-3-carboxylic acid [(S)-cyclobutyl-(3-fluoro-phenyl)-methyl]-amide], which Ki is on record?
The Ki was 22 nM.

For Cc1c(C(=O)N[C@H](c2cccc(F)c2)C2CCC2)c(C)n(Cc2ncco2)c(=O)c1C#N [Example 3d, 5-Cyano-2,4-dimethyl-1-oxazol-2-ylmethyl-6-oxo-1,6-dihydro-pyridine-3-carboxylic acid [(S)-cyclobutyl-(3-fluoro-phenyl)-methyl]-amide], which Ki is on record?
The Ki was 34 nM.

Which Ki does the source give for C#Cc1c(C)c(C(=O)N[C@H](c2cccc(F)c2)C2CCC2)c(C)n(-c2ccccc2)c1=O [Example 3e, 5-Ethynyl-2,4-dimethyl-6-oxo-1-phenyl-1,6-dihydro-pyridine-3-carboxylic acid [(S)-cyclobutyl-(3-fluoro-phenyl)-methyl]-amide] here?
The Ki was 240 nM.

Tested on: not given
Test: not given
Conditions: Am. J. Psychiatry, 161, 2004, 975-984; cited from earlier work

With CC(=O)N(C)C1(c2ccccc2)CCN(CCC[C@]2(c3ccc(Cl)c(Cl)c3)CCCN(C(=O)c3ccccc3)C2)CC1 [Osanetant, osanetant] as the compound, how does the “effect in clinical trials, in particular on positive symptoms of psychosis” value read?
The value was “superior to placebo”.

Same assay, conditions: schizophrenics; Curr. Opion. Invest. Drug, 6, 717-721, 2005; cited from earlier work

Which “effect on cognitive behaviour in clinical trials” value does the source give for CC[C@H](NC(=O)c1c(O)c(-c2ccccc2)nc2ccccc12)c1ccccc1 [talnetant] here?
The value was “ameliorate the cognitive behaviour of schizophrenics”.

Tested on: not given
Test: not given
Conditions: Nature reviews, 4, 967-975, 2005; cited from earlier work

Which bioavailability does the source give for CC(=O)N(C)C1(c2ccccc2)CCN(CCC[C@]2(c3ccc(Cl)c(Cl)c3)CCCN(C(=O)c3ccccc3)C2)CC1 [Osanetant, osanetant] here?
The bioavailability was “poor”.

And the blood-brain barrier penetration?
The blood-brain barrier penetration was “poor”.

And the clearance?
The clearance was “relatively high”.

What about the solubility of the same compound?
The solubility was “poor”.

With CC[C@H](NC(=O)c1c(O)c(-c2ccccc2)nc2ccccc12)c1ccccc1 [talnetant] as the compound, how does the bioavailability read?
The bioavailability was “poor”.

And the blood-brain barrier penetration?
Its blood-brain barrier penetration is “poor”.

What about the clearance of the same compound?
Its clearance is “relatively high”.

What about the solubility of the same compound?
The solubility was “poor”.
